For one experiment, the target named is T1, purified PKG-1 (Bos taurus, UniProt P00516).
T1 construct: purchased Promega
T1 sequence (P00516 1-671): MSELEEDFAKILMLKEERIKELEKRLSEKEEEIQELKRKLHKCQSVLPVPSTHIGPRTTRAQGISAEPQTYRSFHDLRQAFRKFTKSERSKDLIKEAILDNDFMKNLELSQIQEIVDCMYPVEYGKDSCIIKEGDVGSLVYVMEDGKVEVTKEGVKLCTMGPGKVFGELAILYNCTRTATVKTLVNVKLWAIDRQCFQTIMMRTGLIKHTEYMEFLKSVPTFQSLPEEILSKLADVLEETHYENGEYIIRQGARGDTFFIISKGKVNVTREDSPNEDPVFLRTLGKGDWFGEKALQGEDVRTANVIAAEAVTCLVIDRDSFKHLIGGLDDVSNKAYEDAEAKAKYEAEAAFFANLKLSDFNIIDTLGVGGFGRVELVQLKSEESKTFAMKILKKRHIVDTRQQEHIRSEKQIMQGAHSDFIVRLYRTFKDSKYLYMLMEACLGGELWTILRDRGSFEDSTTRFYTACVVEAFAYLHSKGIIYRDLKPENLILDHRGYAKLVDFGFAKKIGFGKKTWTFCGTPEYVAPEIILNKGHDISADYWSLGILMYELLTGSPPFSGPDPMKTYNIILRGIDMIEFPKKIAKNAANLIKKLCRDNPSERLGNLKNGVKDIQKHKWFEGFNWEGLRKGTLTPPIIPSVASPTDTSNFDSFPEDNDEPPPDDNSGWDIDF
Kind of experiment: In vitro kinase assay of purified PKG-1 after peroxynitrite or DETA NONOate. Conditions: even at 100 μM, 30 min in dark at RT. The experiment is classed as biochemical. Here is the method: (§1) PKG Kinase Assay. In vitro activity of PKG was determined by measuring the transfer of the [g-^32P] phosphate group of ATP to the specific PKG substrate, BPDEtide (Calbiochem) in the absence or presence of exogenous 2.5 mM cGMP as described in Example 13. PKG activity is expressed as picmoles of ^32P incorporated into PKG substrate per min per microgram protein.
To address the role of peroxynitrite in the mechanism of the observed impairment of PKG activity, we treated human pulmonary artery smooth muscle cells with 3-morpholinosydnonimine (SIN-1), the superoxide and NO donor that forms peroxynitrite simultaneously (30). […] FIG. 9A relates to dose-dependent impairment of PKG activity by peroxynitrite. Purified […] (Promega) was incubated with peroxynitrite at indicated concentrations for 14 min at RT or with DETA NONOate (NONOate) for 30 min in dark at RT. Kinase activity was then assayed. Data is expressed mean+/−SD (n=3). *, P<0.05 versus control (0 μM). FIG. 9B relates to screening of PKG-1a mutants with in vitro kinase assay. At 48 hr post-transfection, myc-tagged WT and PKG-1a mutants were immunoprecipitated with anti-myc beads and aliquoted for incubation with either peroxynitrite (100 μM) or the same amount of 0.1 N NaOH only (CTL). […] PKG activity was expressed as pmoles/min/μg cell lysates. […] Data are expressed as mean±SD (n=3), *, P<0.05 versus either PKG-1a mutant. […]

A further experiment deals with T2, PKG (Homo sapiens, UniProt Q13976).
T2 construct: endogenous in cells; host or cells: primary human pulmonary artery smooth muscle cells
T2 sequence (Q13976 1-671): T1 sequence (P00516 1-671) with K265T, N275S
Kind of experiment: PKG kinase activity in human pulmonary artery smooth muscle cells after SIN-1. Format: cell-based. How it is done: In vitro activity of PKG was determined by measuring the transfer of the [g-32P] phosphate group of ATP to the specific PKG substrate, BPDEtide (Calbiochem) in the absence or presence of exogenous 2.5 mM cGMP. The assay was carried out in a total volume of […] containing 150 mM BPDEtide, 10 mM HEPES, 35 mM b-glycerophosphate, 4 mM magnesium acetate, 5 mM PKI (a synthetic protein kinase A inhibitor, Calbiochem), 0.5 mM EDTA, 200 mM ATP, and 2 mCi of [g-32P]ATP (specific activity 3,000 Ci/mmol, GE Amersham). The mixture was incubated at […] for 12 min and terminated by spotting […] aliquots of mixture on phosphocellulose papers (P81, Whatman). The papers were then washed and counted in a liquid scintillation counter. PKG activity is expressed as picmoles of 32P incorporated into PKG substrate per minute per milligram protein.
(§2) To test the hypothesis that peroxynitrite modifies PKG through tyrosine nitration thereby impairing kinase activity, we treated subconfluent human pulmonary artery smooth muscle cells with 3-morpholinosydnonimine (SIN-1), a donor of superoxide and NO, which spontaneously forms peroxynitrite at the two concentrations used. […] Each cell lysate (50 mg) was used for immunoprecipitation with an anti-PKG-I antibody and tyrosine nitration of PKG-I was detected by Western blot with anti-nitrotyrosine antibody (NT). Each lysate (15 mg) was used for direct immunoblotting with anti-PKG-I and anti-GAPDH, respectively. CTL, control. […] Data are shown as mean±SD (n=3). *, P<0.001 versus CTL; **, P<0.001 versus CTL.
as §1

A further experiment has as its target T3, PKG-I (Homo sapiens, UniProt Q13976).
T3 construct: primary cultures of human pulmonary artery smooth muscle cells were immunoprecipitated overnight with anti-PKG-I; endogenous in cells; host or cells: primary human pulmonary artery smooth muscle cells
T3 sequence (Q13976 1-671): T1 sequence (P00516 1-671) with K265T, N275S
The experiment in a line: PKG-I tyrosine nitration in human pulmonary artery smooth muscle cells after SIN-1 (IP / anti-nitrotyrosine Western blot). The experiment is classed as cell-based. Here is the method: Western blot analyses were performed using anti-Cav1 (1:1000, Santa Cruz Biotechnology), anti-eNOS (1:1000, Upstate Biotechnology), and anti-PKG-I (1 mg/ml, a generous gift from Dr. X-P. Du at Department of Pharmacology, University of Illinois at Chicago). The same blots were reprobed with either anti-a-actin (1:400, Santa Cruz Biotechnology) or anti-GAPDH (1:2000, Santa Cruz Biotechnology) as a loading control. To detect PKG-I tyrosine nitration, protein lysates from either mouse lungs or primary cultures of human pulmonary artery smooth muscle cells were immunoprecipitated overnight with anti-PKG-I and then probed with anti-nitrotyrosine (1:2500, Cayman Chemical).
as §2
Molecular Analysis. […]
For orientation: Immunoblotting shows a protein as a band on a membrane.

A further experiment relates to Cav1−/− mice. Kind of experiment: RVSP in Cav1−/− mice with PH. Format: in vivo, mouse. Conditions: 8 month old Cav1−/− mice; 5 mg/kg, i.p. daily for 6 wk. How it is done:
RVSP was determined as follows. Briefly, following anesthesia, mice were prepared for catheterization. A 1.4 F pressure transducer catheter (Millar Instruments) was carefully inserted via the right external jugular vein into the right ventricle to obtain measurements of RVSP using the Acknowledge software (Biopac Systems, Inc.). To determine lung vascular resistance, mice were anesthetized and prepared for perfusion. Pulmonary arterial (Ppa) and venous (Pv) pressures were monitored continuously through the pulmonary arterial and left atrial cannula, which were connected to a pressure transducer. […] Ppa was measured at steady-state and was plotted against the flow, which was measured by weighing the effluent collected over a one-minute period. […]
To determine whether pharmacological inhibition of eNOS in Cav1^−/− mice can reverse PH, we administered N-Nitro-L-Arginine Methyl Ester (L-NAME), a NOS inhibitor, to Cav1^−/− mice following onset of PH. […] Data are expressed as mean±SD (n=5-7). *, P=0.023 WT versus Cav1^−/−;**, P=0.015 Cav-L versus Cav1^−/−; #, P>0.5 Cav-D versus Cav1^−/−. […] Data are expressed as mean±SD (n=5-7). *, P=0.002 WT versus Cav1^−/−; **, P=0.013 Cav-L versus Cav1^−/−; #, P=0.8 Cav-D versus Cav1^−/−.
Hemodynamic Measurements. RVSP was determined with a 1.4 F pressure transducer catheter (Millar Instruments) and the Acknowledge software (Biopac Systems, Inc.). […]

Numbering of substitutions follows the chain as printed. Entries after “also recorded” stand apart in the source; their conditions may differ.

Take `NCCN(CCN)/[N+]([O-])=N/O` [DETA NONOate]: the PKG activity result on purified PKG-1 was “failed to suppress PKG activity”.

As to `N=c1c[n+](N2CCOCC2)[n-]o1` [SIN-1, 3-morpholinosydnonimine], the “PKG kinase activity after addition of cGMP” value at PKG (SIN-1 30 min, after addition of 2.5 mM of cGMP) is “significant decrease of PKG activity; also recorded: significantly decreased PKG kinase activity; also recorded: impaired kinase activity”. Further, on PKG (SIN-1 30 min, basal state), the “PKG kinase activity, basal” value was “significant decrease of PKG activity; also recorded: significantly decreased PKG kinase activity; also recorded: impaired kinase activity”. Also, on PKG (SIN-1 at 0.1 mM), the PKG kinase activity entry is “did not decrease PKG kinase activity”. In addition, the PKG tyrosine nitration entry on PKG-I (SIN-1 at 0.1 mM) is “only minimal PKG tyrosine nitration”; at PKG-I (SIN-1 concentration, 30 min), “significant PKG tyrosine nitration; also recorded: marked PKG tyrosine nitration; also recorded: PKG1 tyrosine nitration”.

On to “manganese (III) tetrakis (1-methyl-4-pyridyl) porphyrin pentachloride [MnTMPyP]”, for which the RVSP result with Cav1−/− mice is on record as “reduced RVSP”.
